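Growth conditions: 96-well plates. Treatment: test compound, 48 hours, 5 concentrations. Analysis: linear interpolation between bracketing concentrations; unreached endpoints set to highest concentration. At the TGI there is no net growth.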
Tests used:
Test in all cases: NCI tumour cell line growth inhibition, 48 h
HOP-18 NSCLC = system: HOP-18 NSCLC
SN12K1 renal = system: SN12K1 renal
P388/ADR leukemia = system: P388/ADR leukemia
KM20L2 colon = system: KM20L2 colon
XF 498 CNS = system: XF 498 CNS
LXFL 529 NSCLC = system: LXFL 529 NSCLC
M19-MEL melanoma = system: M19-MEL melanoma
DMS 114 small cell lung = system: DMS 114 small cell lung
RXF-631 renal = system: RXF-631 renal
P388 leukemia = system: P388 leukemia

| Compound | TGI (HOP-18 NSCLC) [µM] | TGI (SN12K1 renal) [µM] | TGI (P388/ADR leukemia) [µM] | TGI (KM20L2 colon) [µM] | TGI (XF 498 CNS) [µM] | TGI (LXFL 529 NSCLC) [µM] | TGI (M19-MEL melanoma) [µM] | TGI (DMS 114 small cell lung) [µM] | TGI (RXF-631 renal) [µM] | TGI (P388 leukemia) [µM] |
| --- | --- | --- | --- | --- | --- | --- | --- | --- | --- | --- |
| Cc1cc(O)c2c(c1O)C(=O)C13C(=C2O)C(=O)C2C(O)C1C1C(O)C3C(=O)C3=C(O)c4c(O)cc(C)c(O)c4C(=O)C321 (centres undefined) | 1.17 | 0.848 | 0.144 | > 100 | 0.504 | – | – | – | – | – |
| O=C(Nc1nc2ccccc2n1Cc1ccccc1)NC12CC3CC(CC(C3)C1)C2 | > 100 | – | – | > 100 | 73.8 | > 100 | > 100 | > 100 | – | – |
| O=C1O/C(=C(\Br)c2cccc3ccccc23)c2ccccc21 | 36.4 | – | – | > 59.5 | – | > 62.7 | > 58.5 | > 48.4 | – | – |
| O=C1CSC(/C(=C\c2ccc(Cl)cc2)c2nc3ccccc3[nH]2)=N1 | – | – | – | 52.1 | 3.01 | 35.2 | 28.8 | – | – | – |
| C=C1C(=O)OC2(C)C3CCC(C3)C12 (centres undefined) | > 100 | – | – | > 100 | 97.9 | – | > 100 | > 100 | – | – |
| Cc1nc2c(n1C(C)(C)C)C(=O)c1ccccc1C2=O | – | – | – | > 100 | > 100 | > 100 | 76.5 | – | – | – |
| COC1=C(N=[N+]=[N-])C(=O)c2ncccc2C1=O | – | – | – | 33 | 16.4 | 3.15 | 3.8 | 19.6 | 29.9 | – |
| COc1ccccc1-c1cc(=O)c2ccccc2[nH]1 | – | – | – | > 100 | – | > 100 | > 100 | – | – | – |
| CCOc1ccc(/C=C(\Cl)c2ccc(OC)c(OC)c2)cc1 | > 100 | – | – | 40.1 | > 100 | > 100 | > 100 | > 100 | – | – |
| CCCCCC(=O)c1ccc2[nH]c3c(C)cc([N+](=O)[O-])c(C)c3c2c1 | – | – | – | – | > 100 | – | > 100 | > 100 | – | – |
| Cc1c2c(cc3c1[nH]c1ccccc13)C=NCC2 | – | 14.4 | 53.1 | 34.5 | 12.6 | – | 33 | 12.9 | – | 17.6 |

From PubChem BioAssay (NCI)
